Experimental data: article PMC6397271 (Scientific Reports, 2019)
Values after ≈ are worked out from the molar mass of the structure shown. Values joined by “and” are separate entries in the source; they are usually repeats but may differ in a detail not shown here. Equal entries are not always repeated. Where two headings read alike, the source gives them in different places.

Key:
[1] = test system: S.aureus MRSA N315; assay: microbe, parasite or virus in culture; format: cell-based, Staphylococcus aureus; conditions: Staphylococcus aureus, MRSA
Protocol: (§1) To find out MICA(with B) and MICB(with A) a checkerboard assay was carried out in 96-well microtiter plates (each test was performed in triplicates). […] Each well in a 96-well plate was inoculated with 100 µL of bacterial inoculum of 1 × 10^5 CFU/mL. For this purpose only bacterial strains of MRSA (N315, 12673 and 6347) were used. Next, the plates were incubated at 37 °C for 24 h.
(§2) FIC index (FICI) is the sum of FICA and FICB. The interpretation of the calculated FICIs is in accordance to the following principle: FICI ≤ 0.5 synergy; FICI > 0.5 and ≤4 indifference (no interaction); FICI > 4, antagonism.

[2] = test system: S.aureus MRSA 12673; assay: microbe, parasite or virus in culture; format: cell-based, Staphylococcus aureus; conditions: Staphylococcus aureus, MRSA
Protocol: as §1, §2

[3] = test system: S.aureus MRSA hetero-VISA 6347; assay: microbe, parasite or virus in culture; format: cell-based, Staphylococcus aureus; conditions: Staphylococcus aureus
Protocol: as §1, §2

[4] = test system: S. aureus MRSA 12673; assay: microbe, parasite or virus in culture; format: cell-based, Staphylococcus aureus
Outline: (§3)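 Strains were cultured aerobically at 37 °C for 24 h, MRSA in cation-adjusted Mueller-Hinton broth and enterococci in BHI broth. Cultures were serially diluted and plated to set CFU/ml. MICs then came from broth microdilution, scored by resazurin reduction.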

[5] = test system: S. aureus MRSA N315; assay: microbe, parasite or virus in culture; format: cell-based, Staphylococcus aureus
Outline: as §3

[6] = test system: S. aureus MRSA hetero-VISA 6347; assay: microbe, parasite or virus in culture; format: cell-based, Staphylococcus aureus
Outline: as §3

[7] = Brain concentration by LC/MS after iv administration; format: in vivo, BALB/c male mice; conditions: iv tail vein, 60 mg/kg, 2 hours after administration, brain homogenate supernatant, UHPLC-ESI/MS SIM; Mean ± SD, ten mice; 60 mg/kg
Protocol: In vivo experiments were performed on BALB/c male mice weighing between 20 and 30 g (the mouse model is widely used for estimation of drug BBB penetration). The animals (obtained from TAZD-CBU) were kept in a 12-hour day and night cycle at room temperature (20–22 °C), humidity 55–56% and fed with a standard diet and water ad libitum for at least 1 week before the experiment. Body temperature and weight were recorded on a regular daily schedule. It is confirmed that all procedures were carried out according to the guidelines outlined by the European Community Council Directive 2010/63/EEC, and they were approved by the local Ethical Committee Resolution 26/2014 (Bydgoszcz, Poland).
The experiments in this section also involved the mouse model described above. […] Similarly to what was stated previously, the mice were sacrificed 2 hours after the administration of the compounds. Their brains were removed immediately from the cranium and weighed. Next, they were homogenized mechanically in the ice and frozen at −80 °C.
Each homogenized mouse brain was centrifuged at 15 000 × g for 10 min. The supernatant was diluted with deionised water (Millipore), filtered (PTFE 0.22 μm filter) and analyzed by UHPLC-ESI/MS with the use of Shimadzu Nexera X2 UHPCL chromatograph and Shimadzu LCMS-2020 mass detector. […]

[8] = 24 h, read-out: MIC Van(with TP10), MICA (with B)
[9] = Staphylococcus aureus, MRSA, 24 h, microbroth dilution, 96-well, resazurin, 37 °C, 24 h, mean ± SD, at least three independent experiments in triplicates, read-out: MIC
[10] = Staphylococcus aureus, MRSA, raw MIC, first block, test a, repetition 1, read-out: MIC1a
[11] = Staphylococcus aureus, MRSA, raw MIC, first block, test a, repetition 2, read-out: MIC2a
[12] = Staphylococcus aureus, MRSA, raw MIC, first block, test a, repetition 3, read-out: MIC3a
[13] = Staphylococcus aureus, MRSA, raw MIC, first block, test b, repetition 1, read-out: MIC1b
[14] = Staphylococcus aureus, MRSA, raw MIC, first block, test b, repetition 2, read-out: MIC2b
[15] = Staphylococcus aureus, MRSA, raw MIC, first block, test b, repetition 3, read-out: MIC3b
[16] = Staphylococcus aureus, MRSA, raw MIC, test a, repetition 1, read-out: MIC1a
[17] = Staphylococcus aureus, MRSA, raw MIC, test a, repetition 2, read-out: MIC2a
[18] = Staphylococcus aureus, MRSA, raw MIC, test a, repetition 3, read-out: MIC3a
[19] = Staphylococcus aureus, MRSA, raw MIC, test b, repetition 1, read-out: MIC1b
[20] = Staphylococcus aureus, MRSA, raw MIC, test b, repetition 2, read-out: MIC2b
[21] = Staphylococcus aureus, MRSA, raw MIC, test b, repetition 3, read-out: MIC3b
[22] = microbroth dilution, 96-well, resazurin, 37 °C, 24 h, mean ± SD, at least three independent experiments in triplicates, listed as Van-HCl
[23] = same test as μM value, mean ± SD

CN[C@H](CC(C)C)C(=O)N[C@H]1C(=O)N[C@@H](CC(N)=O)C(=O)N[C@H]2C(=O)N[C@H]3C(=O)N[C@H](C(=O)N[C@H](C(=O)O)c4cc(O)cc(O)c4-c4cc3ccc4O)[C@H](O)c3ccc(c(Cl)c3)Oc3cc2cc(c3O[C@@H]2O[C@H](CO)[C@@H](O)[C@H](O)[C@H]2O[C@H]2C[C@](C)(N)[C@H](O)[C@H](C)O2)Oc2ccc(cc2Cl)[C@H]1O [Van, vancomycin, reference compound]
MIC [1, 8]: 1.6 µM | MIC ([1]; read-out: MIC Van (A), MICA): 2 µM | MIC [2, 8]: 1.6 µM | MIC ([2]; read-out: MIC Van (A), MICA): 4.1 µM | MIC [3, 8]: 1.6 µM | MIC ([3]; read-out: MIC Van (A), MICA): 4.1 µM | MIC [4, 9]: 4.1 µM (≈ 5.94 µg/mL) | MIC [4, 10]: 4.07 µM (≈ 5.9 µg/mL) | MIC [4, 11]: 2.03 µM (≈ 2.94 µg/mL) | MIC [4, 12]: 4.07 µM (≈ 5.9 µg/mL) | MIC [4, 13]: 4.07 µM (≈ 5.9 µg/mL) | MIC [4, 14]: 2.03 µM (≈ 2.94 µg/mL) | MIC [4, 15]: 4.07 µM (≈ 5.9 µg/mL) | MIC [4, 16]: 6.05 µM (≈ 8.77 µg/mL) | MIC [4, 17]: 3.03 µM (≈ 4.39 µg/mL) | MIC [4, 18]: 6.05 µM (≈ 8.77 µg/mL) | MIC [4, 19]: 6.05 µM (≈ 8.77 µg/mL) | MIC [4, 20]: 3.03 µM (≈ 4.39 µg/mL) | MIC [4, 21]: 6.05 µM (≈ 8.77 µg/mL) | MIC [4, 22]: 4.1 ± 1.1 µM (≈ 5.94 µg/mL) | MIC in (μg/ml) [4, 23]: 6.1 ± 1.6 µg/mL (≈ 4.21 µM) | MIC [5, 9]: 2 µM (≈ 2.9 µg/mL) | MIC [5, 10]: 2 µM (≈ 2.9 µg/mL) | MIC [5, 11]: 1 µM (≈ 1.45 µg/mL) | MIC [5, 12]: 2 µM (≈ 2.9 µg/mL) | MIC [5, 13]: 2 µM (≈ 2.9 µg/mL) | MIC [5, 14]: 2 µM (≈ 2.9 µg/mL) | MIC [5, 15]: 1 µM (≈ 1.45 µg/mL) | MIC [5, 16]: 2.97 µM (≈ 4.3 µg/mL) | MIC [5, 17]: 1.49 µM (≈ 2.16 µg/mL) | MIC [5, 18]: 2.97 µM (≈ 4.3 µg/mL) | MIC [5, 19]: 2.97 µM (≈ 4.3 µg/mL) | MIC [5, 20]: 2.97 µM (≈ 4.3 µg/mL) | MIC [5, 21]: 1.49 µM (≈ 2.16 µg/mL) | MIC [5, 22]: 2.0 ± 0.5 µM (≈ 2.9 µg/mL) | MIC ([5]; microbroth dilution, 96-well, resazurin, 37 °C, 24 h, mean ± SD, at least three independent experiments in triplicates, read-out: MIC): 2 µM (≈ 2.9 µg/mL) | MIC in (μg/ml) [5, 23]: 3.0 ± 0.7 µg/mL (≈ 2.07 µM) | MIC ([6]; Staphylococcus aureus, 24 h, microbroth dilution, 96-well, resazurin, 37 °C, 24 h, mean ± SD, at least three independent experiments in triplicates, read-out: MIC): 4.1 µM (≈ 5.94 µg/mL) | MIC ([6]; Staphylococcus aureus, raw MIC, first block, test a, repetition 1, read-out: MIC1a): 4.07 µM (≈ 5.9 µg/mL) | MIC ([6]; Staphylococcus aureus, raw MIC, first block, test a, repetition 2, read-out: MIC2a): 4.07 µM (≈ 5.9 µg/mL) | MIC ([6]; Staphylococcus aureus, raw MIC, first block, test a, repetition 3, read-out: MIC3a): 4.07 µM (≈ 5.9 µg/mL) | MIC ([6]; Staphylococcus aureus, raw MIC, first block, test b, repetition 1, read-out: MIC1b): 2.03 µM (≈ 2.94 µg/mL) | MIC ([6]; Staphylococcus aureus, raw MIC, first block, test b, repetition 2, read-out: MIC2b): 4.07 µM (≈ 5.9 µg/mL) | MIC ([6]; Staphylococcus aureus, raw MIC, first block, test b, repetition 3, read-out: MIC3b): 2.03 µM (≈ 2.94 µg/mL) | MIC ([6]; Staphylococcus aureus, raw MIC, test a, repetition 1, read-out: MIC1a): 6.05 µM (≈ 8.77 µg/mL) | MIC ([6]; Staphylococcus aureus, raw MIC, test a, repetition 2, read-out: MIC2a): 6.05 µM (≈ 8.77 µg/mL) | MIC ([6]; Staphylococcus aureus, raw MIC, test a, repetition 3, read-out: MIC3a): 6.05 µM (≈ 8.77 µg/mL) | MIC ([6]; Staphylococcus aureus, raw MIC, test b, repetition 1, read-out: MIC1b): 3.03 µM (≈ 4.39 µg/mL) | MIC ([6]; Staphylococcus aureus, raw MIC, test b, repetition 2, read-out: MIC2b): 6.05 µM (≈ 8.77 µg/mL) | MIC ([6]; Staphylococcus aureus, raw MIC, test b, repetition 3, read-out: MIC3b): 3.03 µM (≈ 4.39 µg/mL) | MIC [6, 22]: 4.1 ± 1.1 µM (≈ 5.94 µg/mL) | MIC in (μg/ml) [6, 23]: 6.1 ± 1.6 µg/mL (≈ 4.21 µM) | Brain concentrations of Van [7]: 11 nM and 11 ± 2 nM
